From article PMC8615111, “Phenolic Thiazoles with Antioxidant and Antiradical Activity. Synthesis, In Vitro Evaluation, Toxicity, Electrochemical Behavior, Quantum Studies and Antimicrobial Screening” (Antioxidants, 2021)
Like-named read-outs stand apart in the source and are kept apart here.

What was measured:
[1] = DPPH˙ radical scavenging by cyclic voltammetry
Procedure: (§1) The antioxidant properties were evaluated in terms of their activity against some free radicals, and other compounds reported in the literature, relevant for this purpose, such as: • ferric ions (Fe^3+)—used to test the reduction of the antioxidant character of the compounds; • DPPH˙ free radical– used to test the scavenging effect of the compounds on this radical; • hydrogen peroxide (H2O2)—used to test the scavenging effect of the synthesized molecules on this compound; • 2,2,6,6-tetramethylpiperidinyl-1-oxy (TEMPO)—used to test the scavenging effect of the synthesized molecules on this compound.
The radical scavenging properties of the novel compounds and the other antioxidants were determined using a stock DPPH˙ radical solution prepared in absolute ethanol. The antioxidant samples were mixed with DPPH˙ solution and HClO4 electrolyte and incubated in the dark for 30 min. The remaining redox activity of DPPH was measured by cycling the potential between −0.7 V and 1.2 V, with a scan rate of 0.1 V/s.
The nitrogen-centered 2-2-diphenyl-1-picrylhydrazyl radical (DPPH˙) based assay is one of the most commonly employed method to evaluate the ability of a compound to scavenge or neutralize free radicals based on the reduction of the radical.
Taking into account the redox activity of DPPH˙, its diminution by an antioxidant can also be followed by CV, which is expected to show changes in the voltammetric peaks. Figure A5 reports the electrochemical study of initial electrooxidation of DPPH˙ and the novel compounds compared to remaining peaks after their incubation for 30 min. The decrease of all the peaks after mixture incubation indicates the partial consumption of DPPH˙.

[2] = TEMPO scavenging by differential pulse voltammetry; details: 2 mM TEMPO, one hour incubation, 0.1 M HClO4, DPV
Procedure: as §1
TEMPO (2,2,6,6-tetramethylpiperidine-N-oxyl) is a stable organic nitroxide radical that has been reported to scavenge carbon-centered radicals.
Differential pulse voltammetry (DPV) was then applied in order to evaluate the antioxidant effectiveness of the novel compounds through their ability to scavenge the free radical species.

C. albicans ATCC 102310 = test: Antifungal activity, modified microdilution; type: cell-based; details: Candida albicans, ATCC102310
Procedure: For evaluating the antimicrobial activity of the compounds, […] aerobic microbial strains were used: S. aureus ATCC 25923, S. pyogenes ATCC 19615, P. aeruginosa ATCC 27853, S. enterica ISM 83/37, S. typhimurium ATCC 14028, E. coli ATCC 8739, E. coli ATCC 25922, and C. albicans ATCC 102310 obtained from Food Biotechnology Laboratory, Life Sciences Institute, University of Agricultural Sciences, and Veterinary Medicine Cluj Napoca, where the experiment was performed. The antimicrobial activity of the compounds was determined using a modified microdilution technique, and the followed protocol was previously reported.
The antimicrobial activity of the final compounds, against seven aerobic microbial strains (S. aureus ATCC 25923, S. pyogenes ATCC 19615, P. aeruginosa ATCC 27853, S. enterica ISM 83/37, S. typhimurium ATCC 14028, E. coli ATCC 8739, E. coli ATCC 25922), and a fungal strain (C. albicans ATCC 102310), was determined using a modified microdilution technique.
The results of the antimicrobial activity evaluation of the compounds, in comparison to norfloxacin and chloramphenicol used as standard antibiotics and fluconazole used as reference antifungal, are depicted in Table 10.

HaCaT cells = test: Cytotoxicity determination, MTT method; type: cell-based; details: Homo sapiens, HaCaT cells, MTT, 24 h
Procedure: To determine the cytotoxic action of the obtained compounds 5[…], and 8a-b, a normal human keratinocytes cell line was used (HaCaT keratinocytes, CLS-300493, Eppelheim, Germany). HaCaT cells were cultured in Dulbecco's Modified Eagle Media (DMEM) supplemented with 1% L-glutamine, 1% penicillin-streptomycin, and 5% fetal bovine serum. At 80% confluence, the cells were transferred to 96 well plates at a confluence of 12×10^3 cells/well and left to attach for 24 h at 37°C and 5% CO2 in a humidified atmosphere. […] After 24 h, the culture media was replaced with 100 μL of MTT solution at a final concentration of 5 μg/mL/well and left to interact with the cells for 2 h in the incubator. After this, the MTT solution was replaced with 100 μL of isopropanol, left to dissolve the formazan crystals for 5 min, and read at 550 and 630 nm using a BioTek Epoch plate reader (BioTek Instruments, Winooski, VT, USA) and Gen5 software (version 1.09).

[3] = DPPH˙ radical scavenging assay; type: biochemical; details: for IC50: DPPH˙ scavenging
Procedure: The 2,2-diphenyl-1-picrylhydrazyl (DPPH˙) radical scavenging assay is based on the transfer of one hydrogen from the analyzed compound to the violet radical DPPH˙. This will convert it to a yellow compound, the change in absorbance being proportional to the amount of DPPH˙ neutralized, according to Brand-Williams et al..
The preparation of the DPPH˙ reagent was previously reported by our group. […] Over the previous quantities, DMSO was added until a total volume of 50 µL was obtained in all cuvettes, and 1950 µL of DPPH˙ solution was added to all cuvettes; then, they were shaken for well over 10 min in the dark at room temperature. The absorbances of the solutions were measured at λ = 517 nm. The DPPH˙ radical scavenging activity of evaluated compounds was calculated using Equation (2):(2) DPPH scavenging (%)=control absorbance−sample absorbance/control absorbance×100

[4] = compound + DPPH, 30 min, 2nd Eox
[5] = compound + DPPH, 30 min, 2nd Ered column
[6] = compound + DPPH, 30 min, 2nd Ired
[7] = compound alone, 2nd Ered column
[8] = compound alone 0.5 mM in 0.1 M HClO4, 1st Eox column
[9] = compound alone 0.5 mM in 0.1 M HClO4, 1st Iox column
[10] = compound + DPPH, 30 min, 1st Ered
[11] = compound + DPPH, 30 min, 1st Ired

| SMILES | Iox (μA) ([1]; compound + DPPH, 30 min) | Eox (V) [1, 4] | Ered (V) [1, 5] | Ired (μA) [1, 6] | Iox (μA) ([1]; compound alone) | Eox (V) ([1]; compound alone, 2nd Eox) | Ered (V) [1, 7] | Ired (μA) ([1]; compound alone, 2nd Ired) | Eox (V) ([1]; compound alone, 3rd Eox column) | Iox (μA) ([1]; compound alone, 3rd Iox column) | oxidation signal for TEMPO after incubation with the compound [2] | MIC (C. albicans ATCC 102310) | IC50 (HaCaT cells; read-out: IC50) | IC50 (HaCaT cells; read-out: IC50 (µg/mL)) | % of DPPH˙ Scavenged ([3]; 1 µg/mL) | % of DPPH˙ Scavenged ([3]; 1.5 µg/mL) | % of DPPH˙ Scavenged ([3]; 2 µg/mL) | % of DPPH˙ Scavenged ([3]; 3 µg/mL) | % of DPPH˙ Scavenged ([3]; 5 µg/mL) | IC50 [3] | other results |
| --- | --- | --- | --- | --- | --- | --- | --- | --- | --- | --- | --- | --- | --- | --- | --- | --- | --- | --- | --- | --- | --- |
| C/C(=N\Nc1nc(C)cs1)c1ccc(O)cc1O [Compound 5a, Dihydroxy-Phenyl-Thiazol-Hydrazinium chloride] | 13.23 μA | 0.362 V | 0.188 V | −5.46 μA | 43.29 μA | 0.339 V | 0.137 V | −9.59 μA | 0.598 V | 20.51 μA | both the signal shift to higher oxidation potentials and its decrease | > 100 µg/mL | 102 µM | 30.7 µg/mL |  |  |  |  |  |  | Eox (V) ([1]; compound + DPPH, 30 min, 3rd Eox column): 0.572 V; Iox (μA) ([1]; compound + DPPH, 30 min, 3rd Iox column): 11.81 μA; Eox (V) ([1]; compound + DPPH, after 30 min of reaction, 1st Eox column): 0.218 V; Iox (μA) ([1]; compound + DPPH, after 30 min of reaction, 1st Iox column): 8.68 μA; Eox (V) ([1]; compound alone, 4th Eox column): 0.987 V; Iox (μA) ([1]; compound alone, 4th Iox column): 15.5 μA |
| Cc1csc(N/N=C/c2ccc(O)cc2O)n1.Cl [Compound 5b, (E)-2-(2,4-dihydroxybenzylidene)-1-(4-methylthiazol-2-yl)hydrazin-1-ium chloride] | 33.3 μA | 0.349 V | 0.145 V | −7.56 μA | 31.76 μA | 0.357 V | 0.11 V | −10.26 μA |  |  | both the signal shift to higher oxidation potentials and its decrease |  | 176 µM | 50.3 µg/mL | 16.46% | 24.42% | 34.44% | 52.10% | 87.08% | 2.90 µg/mL | MIC (C. albicans ATCC 102310; C. albicans ATCC 102310, read-out: MIC): > 100 µg/mL |
| Br.C/C(=N\Nc1nc(-c2ccccc2)cs1)c1ccc(O)cc1O [Compound 6a, (E)-2-(1-(2,4-dihydroxyphenyl)ethylidene)-1-(4-phenylthiazol-2-yl)hydrazin-1-ium bromide] | 18.21 μA | 0.379 V |  |  |  |  | 0.193 V | −4.16 μA | 0.565 V | 4.37 μA | does not decrease | > 100 µg/mL | 312 µM | 127 µg/mL | 5.90% | 9.07% | 12.87% | 19.88% | 38.13% | 6.56 µg/mL | Eox (V) [1, 8]: 0.232 V; Iox (μA) [1, 9]: 4.99 μA |
| Br.Oc1ccc(/C=N/Nc2nc(-c3ccccc3)cs2)c(O)c1 [Compound 6b, (E)-2-(2,4-dihydroxybenzylidene)-1-(4-phenylthiazol-2-yl)hydrazin-1-ium bromide] | 43.4 μA | 0.391 V | 0.425 V | −1.23 μA | 47.3 μA | 0.391 V | 0.239 V | −7.045 μA |  |  | does not decrease | 62.5 µg/mL | < 1.27 µM | < 0.5 µg/mL | 10.60% | 13.62% | 17.23% | 23.89% | 41.22% | 6.23 µg/mL | Ered (V) [1, 10]: 0.302 V; Ired (μA) [1, 11]: −1.09 μA |
| Br.C/C(=N\Nc1nc(-c2ccc(O)c(C(N)=O)c2)cs1)c1ccc(O)cc1O [Compound 7a, (E)-1-(4-(3-carbamoyl-4-hydroxyphenyl)thiazol-2-yl)-2-(1-(2,4-dihydroxyphenyl)ethylidene)hydrazin-1-ium bromide] | 9.24 μA | 0.405 V |  |  |  |  | 0.217 V | −5.26 μA | 0.493 V | 3.95 μA | does not decrease | > 100 µg/mL | 75.5 µM | 35.1 µg/mL | 20.01% | 22.10% | 26.75% | 32.43% | 49.27% | 5.19 µg/mL | Eox (V) [1, 8]: 0.205 V; Iox (μA) [1, 9]: 3.21 μA |
| Br.NC(=O)c1cc(-c2csc(N/N=C/c3ccc(O)cc3O)n2)ccc1O [Compound 7b, (E)-1-(4-(3-carbamoyl-4-hydroxyphenyl)thiazol-2-yl)-2-(2,4-dihydroxybenzylidene) hydrazin-1-ium bromide] | 9.076 μA | 0.359 V |  |  | 15.65 μA | 0.342 V | 0.276 V | −2.54 μA |  |  | does not decrease | > 100 µg/mL | 93.9 µM | 42.4 µg/mL | 24.01% | 26.00% | 30.41% | 35.81% | 51.80% | 4.84 µg/mL | Ered (V) [1, 10]: 0.291 V; Ired (μA) [1, 11]: −7.43 μA |
